Measurements taken from patent US20110318768A1, “METHOD FOR DETERMINING SENSITIVITY OF TUMOR CELLS TO TYROSINE KINASE INHIBITOR AND COMPUTER PROGRAM PRODUCT” (SYSMEX CORPORATION, priority 2010, published 2011).
Like-named read-outs stand apart in the source and are kept apart here.

Legend:
[1] = system: AU565 breast cancer cell line; test: Growth inhibition by lapatinib (Cell Titer-Glo); format: cell-based; settings: Homo sapiens
Description: (§1) The sensitivity of cell lines to EGFR/HER2 inhibitor was examined by culturing breast cancer cell lines shown in Table 3 in the presence of EGFR/HER2 inhibitor and examining growth inhibition effects on the cell lines.
(§2) The breast cancer cell lines shown in Table 3 were seeded in a 96 well assay plate (#3917: Costar) at 4,000 cells/well, and cultured at 37° C. After 24 hours, the medium was changed to a medium containing a DMSO solution of lapatinib ditosylate hydrate (hereafter also referred to as lapatinib; #L-4804: LC Laboratories) with various concentrations, and the culture was continued at 37° C. for 72 hours. The concentrations of lapatinib in the medium were 0 (control), 0.1, 1, 10, 30, 100, 300, 1,000 and 3,000, and 10,000 nM. The concentration of DMSO in the medium is constant (0.1 (v/v) %) in all of the wells. The cell number in the wells at 0 and 72 hours after exchange of the medium was measured using Cell Titer-Glo Luminescent Cell Viability Assay (#G7571: Promega KK.). The lapatinib concentration to yield half the cell number of the control in 72 hours was determined by fitting with a logistic curve and the concentration was IC50. The cell line whose IC50 was less than 1 μM was defined as a “sensitive line”, while the cell line whose IC50 was 1 μM or more was defined as an “insensitive line”.

[2] = system: BT-20 breast cancer cell line; test: Growth inhibition by lapatinib (Cell Titer-Glo); format: cell-based; settings: Homo sapiens
Description: as §1, §2

[3] = system: BT-474 breast cancer cell line; test: Growth inhibition by lapatinib (Cell Titer-Glo); format: cell-based; settings: Homo sapiens
Description: as §1, §2

[4] = system: BT-483 breast cancer cell line; test: Growth inhibition by lapatinib (Cell Titer-Glo); format: cell-based; settings: Homo sapiens
Description: as §1, §2

[5] = system: BT-549 breast cancer cell line; test: Growth inhibition by lapatinib (Cell Titer-Glo); format: cell-based; settings: Homo sapiens
Description: as §1, §2

[6] = system: CAMA-1 breast cancer cell line; test: Growth inhibition by lapatinib (Cell Titer-Glo); format: cell-based; settings: Homo sapiens
Description: as §1, §2

[7] = system: HCC1419 breast cancer cell line; test: Growth inhibition by lapatinib (Cell Titer-Glo); format: cell-based; settings: Homo sapiens
Description: as §1, §2

[8] = system: HCC1428 breast cancer cell line; test: Growth inhibition by lapatinib (Cell Titer-Glo); format: cell-based; settings: Homo sapiens
Description: as §1, §2

[9] = system: HCC1569 breast cancer cell line; test: Growth inhibition by lapatinib (Cell Titer-Glo); format: cell-based; settings: Homo sapiens
Description: as §1, §2

[10] = system: HCC1806 breast cancer cell line; test: Growth inhibition by lapatinib (Cell Titer-Glo); format: cell-based; settings: Homo sapiens
Description: as §1, §2

[11] = system: HCC1937 breast cancer cell line; test: Growth inhibition by lapatinib (Cell Titer-Glo); format: cell-based; settings: Homo sapiens
Description: as §1, §2

[12] = system: HCC1954 breast cancer cell line; test: Growth inhibition by lapatinib (Cell Titer-Glo); format: cell-based; settings: Homo sapiens
Description: as §1, §2

[13] = system: HCC202 breast cancer cell line; test: Growth inhibition by lapatinib (Cell Titer-Glo); format: cell-based
Description: as §1, §2

[14] = system: HS578T breast cancer cell line; test: Growth inhibition by lapatinib (Cell Titer-Glo); format: cell-based; settings: Homo sapiens, Hs-578T
Description: as §1, §2

[15] = system: MCF7 breast cancer cell line; test: Growth inhibition by lapatinib (Cell Titer-Glo); format: cell-based; settings: Homo sapiens
Description: as §1, §2

[16] = system: MDA-MB-157 breast cancer cell line; test: Growth inhibition by lapatinib (Cell Titer-Glo); format: cell-based; settings: Homo sapiens
Description: as §1, §2

[17] = system: MDA-MB-231 breast cancer cell line; test: Growth inhibition by lapatinib (Cell Titer-Glo); format: cell-based; settings: Homo sapiens
Description: as §1, §2

[18] = system: MDA-MB-415 breast cancer cell line; test: Growth inhibition by lapatinib (Cell Titer-Glo); format: cell-based; settings: Homo sapiens
Description: as §1, §2

[19] = system: MDA-MB-435S breast cancer cell line; test: Growth inhibition by lapatinib (Cell Titer-Glo); format: cell-based; settings: Homo sapiens
Description: as §1, §2

[20] = system: MDA-MB-436 breast cancer cell line; test: Growth inhibition by lapatinib (Cell Titer-Glo); format: cell-based; settings: Homo sapiens
Description: as §1, §2

[21] = system: MDA-MB-453 breast cancer cell line; test: Growth inhibition by lapatinib (Cell Titer-Glo); format: cell-based; settings: Homo sapiens
Description: as §1, §2

[22] = system: MDA-MB-468 breast cancer cell line; test: Growth inhibition by lapatinib (Cell Titer-Glo); format: cell-based; settings: Homo sapiens
Description: as §1, §2

[23] = system: SK-BR-3 breast cancer cell line; test: Growth inhibition by lapatinib (Cell Titer-Glo); format: cell-based; settings: Homo sapiens
Description: as §1, §2

[24] = system: T-47D breast cancer cell line; test: Growth inhibition by lapatinib (Cell Titer-Glo); format: cell-based; settings: Homo sapiens, T47D
Description: as §1, §2

[25] = system: UACC-812 breast cancer cell line; test: Growth inhibition by lapatinib (Cell Titer-Glo); format: cell-based; settings: Homo sapiens
Description: as §1, §2

[26] = system: UACC-893 breast cancer cell line; test: Growth inhibition by lapatinib (Cell Titer-Glo); format: cell-based; settings: Homo sapiens
Description: as §1, §2

[27] = system: ZR-75-1 breast cancer cell line; test: Growth inhibition by lapatinib (Cell Titer-Glo); format: cell-based; settings: Homo sapiens
Description: as §1, §2

[28] = system: ZR-75-30 breast cancer cell line; test: Growth inhibition by lapatinib (Cell Titer-Glo); format: cell-based; settings: Homo sapiens
Description: as §1, §2

BT-474 = settings: Konecny et al.; cited from earlier work
SK-Br-3 = settings: Konecny et al.; cited from earlier work
MDA-MB231 = settings: Konecny et al.; cited from earlier work
MCF7 = settings: Konecny et al.; cited from earlier work
T47D = settings: Konecny et al.; cited from earlier work
[29] = 72 hours culture, read-out: IC50
[30] = read-out: Reference example 1 Sensitivity to lapatinib

For CS(=O)(=O)CCNCc1ccc(-c2ccc3ncnc(Nc4ccc(OCc5cccc(F)c5)c(Cl)c4)c3c2)o1 [lapatinib, N-(3-chloro-4-[[(3-fluorophenyl)methyl]oxy]phenyl)-6-[5-([[2-(methylsulfonyl)ethyl]amino]methyl)-2-furanyl]-4-quinazolineamine bis(4-methylbenzenesulfonate)monohydrate], which IC50 [1, 29] is on record?
Its IC50 is 157 nM.

And the IC50 [1, 30]?
The IC50 was < 1000 nM.

And the IC50 [2, 29]?
Its IC50 is > 10000 nM.

What about the IC50 [2, 30] of the same molecule?
Its IC50 is ≥ 1000 nM.

And the IC50 [3, 29]?
The IC50 was 80 nM.

What about the IC50 [3, 30] of the same molecule?
Its IC50 is < 1000 nM.

What about the IC50 [4, 29] of the same molecule?
Its IC50 is > 10000 nM.

What about the IC50 [4, 30] of the same molecule?
Its IC50 is ≥ 1000 nM.

And the IC50 [5, 29]?
Its IC50 is > 10000 nM.

And the IC50 [5, 30]?
The IC50 was ≥ 1000 nM.

And the IC50 [6, 29]?
The IC50 was > 10000 nM.

And the IC50 [6, 30]?
The IC50 was ≥ 1000 nM.

What about the IC50 [7, 29] of the same molecule?
Its IC50 is 124 nM.

And the IC50 [7, 30]?
The IC50 was < 1000 nM.

And the IC50 [8, 29]?
Its IC50 is > 10000 nM.

And the IC50 [8, 30]?
Its IC50 is ≥ 1000 nM.

What about the IC50 [9, 29] of the same molecule?
Its IC50 is 4820 nM.

And the IC50 [9, 30]?
The IC50 was ≥ 1000 nM.

And the IC50 [10, 29]?
Its IC50 is > 10000 nM.

And the IC50 [10, 30]?
Its IC50 is ≥ 1000 nM.

And the IC50 [11, 29]?
The IC50 was > 10000 nM.

What about the IC50 [11, 30] of the same molecule?
The IC50 was ≥ 1000 nM.

And the IC50 [12, 29]?
Its IC50 is 1470 nM.

What about the IC50 [12, 30] of the same molecule?
The IC50 was ≥ 1000 nM.

And the IC50 [13, 29]?
Its IC50 is 2470 nM.

What about the IC50 [13, 30] of the same molecule?
The IC50 was ≥ 1000 nM.

What about the IC50 [14, 29] of the same molecule?
Its IC50 is > 10000 nM.

What about the IC50 [14, 30] of the same molecule?
The IC50 was ≥ 1000 nM.

And the IC50 [15, 29]?
Its IC50 is > 10000 nM.

And the IC50 [15, 30]?
The IC50 was ≥ 1000 nM.

And the IC50 [16, 29]?
The IC50 was > 10000 nM.

And the IC50 [16, 30]?
Its IC50 is ≥ 1000 nM.

And the IC50 [17, 29]?
The IC50 was > 10000 nM.

What about the IC50 [17, 30] of the same molecule?
Its IC50 is ≥ 1000 nM.

And the IC50 [18, 29]?
Its IC50 is > 10000 nM.

What about the IC50 [18, 30] of the same molecule?
The IC50 was ≥ 1000 nM.

What about the IC50 [19, 29] of the same molecule?
The IC50 was > 10000 nM.

And the IC50 [19, 30]?
The IC50 was ≥ 1000 nM.

What about the IC50 [20, 29] of the same molecule?
The IC50 was > 10000 nM.

What about the IC50 [20, 30] of the same molecule?
Its IC50 is ≥ 1000 nM.

And the IC50 [21, 29]?
The IC50 was 309 nM.

What about the IC50 [21, 30] of the same molecule?
The IC50 was < 1000 nM.

And the IC50 [22, 29]?
The IC50 was 3780 nM.

What about the IC50 [22, 30] of the same molecule?
The IC50 was ≥ 1000 nM.

What about the IC50 [23, 29] of the same molecule?
Its IC50 is 315 nM.

And the IC50 [23, 30]?
Its IC50 is < 1000 nM.

What about the IC50 [24, 29] of the same molecule?
The IC50 was > 10000 nM.

What about the IC50 [24, 30] of the same molecule?
Its IC50 is ≥ 1000 nM.

What about the IC50 [25, 29] of the same molecule?
The IC50 was 490 nM.

And the IC50 [25, 30]?
Its IC50 is < 1000 nM.

And the IC50 [26, 29]?
Its IC50 is 482 nM.

And the IC50 [26, 30]?
The IC50 was < 1000 nM.

And the IC50 [27, 29]?
The IC50 was > 10000 nM.

And the IC50 [27, 30]?
The IC50 was ≥ 1000 nM.

And the IC50 [28, 29]?
Its IC50 is 211 nM.

What about the IC50 [28, 30] of the same molecule?
The IC50 was < 1000 nM.

What about the “lapatinib sensitivity of cell line” value (BT-474) of the same molecule?
Its value is “sensitive”.

What about the “lapatinib sensitivity of cell line” value (SK-Br-3) of the same molecule?
Its value is “sensitive”.

What about the “lapatinib sensitivity of cell line” value (MDA-MB231) of the same molecule?
Its value is “insensitive”.

What about the “lapatinib sensitivity of cell line” value (MCF7) of the same molecule?
The value was “insensitive”.

And the “lapatinib sensitivity of cell line” value (T47D)?
Its value is “insensitive”.
